Experimental data taken from ChEMBL document CHEMBL4004803, “Syntheses and antibacterial activity of soluble 9-bromo substituted indolizinoquinoline-5,12-dione derivatives” (Eur J Med Chem, 2017).
Values after ≈ are worked out from the molar mass of the structure shown.

What was measured:
Format in all cases: functional
[1] = test system: Staphylococcus aureus; experiment: Antibacterial activity against methicillin-resistant Staphylococcus aureus 921026 clinical isolate after 20 to 24 hrs by two-fold microdilution method
[2] = test system: Enterococcus faecalis; experiment: Antibacterial activity against Enterococcus faecalis ATCC 29212 after 20 to 24 hrs by two-fold microdilution method
[3] = test system: Staphylococcus aureus; experiment: Antibacterial activity against methicillin-resistant Staphylococcus aureus 530231 clinical isolate after 20 to 24 hrs by two-fold microdilution method
[4] = test system: Staphylococcus aureus; experiment: Antibacterial activity against methicillin-resistant Staphylococcus aureus 20106-2 clinical isolate after 20 to 24 hrs by two-fold microdilution method
[5] = test system: Staphylococcus aureus; experiment: Antibacterial activity against methicillin-resistant Staphylococcus aureus 202045 clinical isolate after 20 to 24 hrs by two-fold microdilution method
[6] = test system: Staphylococcus aureus; experiment: Antibacterial activity against methicillin-resistant Staphylococcus aureus 531220 clinical isolate after 20 to 24 hrs by two-fold microdilution method
[7] = test system: Streptococcus pneumoniae; experiment: Antibacterial activity against Streptococcus pneumoniae ATCC 6305 after 20 to 24 hrs by two-fold microdilution method
[8] = test system: Staphylococcus aureus; experiment: Antibacterial activity against methicillin-resistant Staphylococcus aureus 1107027 clinical isolate after 20 to 24 hrs by two-fold microdilution method
[9] = test system: Staphylococcus aureus; experiment: Antibacterial activity against methicillin-resistant Staphylococcus aureus 1026211 clinical isolate after 20 to 24 hrs by two-fold microdilution method
[10] = test system: Staphylococcus aureus; experiment: Antibacterial activity against methicillin-resistant Staphylococcus aureus 10844 clinical isolate after 20 to 24 hrs by two-fold microdilution method
[11] = test system: Staphylococcus aureus; experiment: Antibacterial activity against methicillin-resistant Staphylococcus aureus 523005 clinical isolate after 20 to 24 hrs by two-fold microdilution method
[12] = test system: Staphylococcus aureus; experiment: Antibacterial activity against methicillin-resistant Staphylococcus aureus 111423 clinical isolate after 20 to 24 hrs by two-fold microdilution method
[13] = test system: Staphylococcus aureus; experiment: Antibacterial activity against methicillin-resistant Staphylococcus aureus 212014 clinical isolate after 20 to 24 hrs by two-fold microdilution method
[14] = test system: Staphylococcus aureus; experiment: Antibacterial activity against methicillin-resistant Staphylococcus aureus 112047 clinical isolate after 20 to 24 hrs by two-fold microdilution method
[15] = test system: Staphylococcus aureus; experiment: Antibacterial activity against methicillin-resistant Staphylococcus aureus 20534 clinical isolate after 20 to 24 hrs by two-fold microdilution method
[16] = test system: Staphylococcus aureus; experiment: Antibacterial activity against methicillin-resistant Staphylococcus aureus 123152 clinical isolate after 20 to 24 hrs by two-fold microdilution method
[17] = test system: Staphylococcus aureus; experiment: Antibacterial activity against methicillin-resistant Staphylococcus aureus 118038 clinical isolate after 20 to 24 hrs by two-fold microdilution method
[18] = test system: Staphylococcus aureus; experiment: Antibacterial activity against methicillin-resistant Staphylococcus aureus 912014 clinical isolate after 20 to 24 hrs by two-fold microdilution method
[19] = test system: Staphylococcus aureus; experiment: Antibacterial activity against methicillin-resistant Staphylococcus aureus 224001 clinical isolate after 20 to 24 hrs by two-fold microdilution method
[20] = test system: Staphylococcus aureus; experiment: Antibacterial activity against methicillin-resistant Staphylococcus aureus 414244 clinical isolate after 20 to 24 hrs by two-fold microdilution method
[21] = test system: Staphylococcus aureus; experiment: Antibacterial activity against methicillin-resistant Staphylococcus aureus 519030 clinical isolate after 20 to 24 hrs by two-fold microdilution method
[22] = test system: Staphylococcus aureus; experiment: Antibacterial activity against methicillin-resistant Staphylococcus aureus 1025022 clinical isolate after 20 to 24 hrs by two-fold microdilution method
[23] = test system: Staphylococcus aureus; experiment: Antibacterial activity against methicillin-resistant Staphylococcus aureus ATCC 43300 after 20 to 24 hrs by two-fold microdilution method
[24] = test system: Staphylococcus aureus; experiment: Antibacterial activity against methicillin-resistant Staphylococcus aureus 724244 clinical isolate after 20 to 24 hrs by two-fold microdilution method
[25] = test system: Staphylococcus aureus; experiment: Antibacterial activity against methicillin-resistant Staphylococcus aureus 30116-1 clinical isolate after 20 to 24 hrs by two-fold microdilution method
[26] = test system: Staphylococcus aureus; experiment: Antibacterial activity against methicillin-resistant Staphylococcus aureus 221014 clinical isolate after 20 to 24 hrs by two-fold microdilution method
[27] = test system: Staphylococcus aureus; experiment: Antibacterial activity against methicillin-resistant Staphylococcus aureus 614019 clinical isolate after 20 to 24 hrs by two-fold microdilution method
[28] = test system: Staphylococcus aureus; experiment: Antibacterial activity against methicillin-resistant Staphylococcus aureus 1019240 clinical isolate after 20 to 24 hrs by two-fold microdilution method
[29] = test system: Staphylococcus aureus; experiment: Antibacterial activity against methicillin-resistant Staphylococcus aureus 219236 clinical isolate after 20 to 24 hrs by two-fold microdilution method
[30] = test system: Staphylococcus aureus; experiment: Antibacterial activity against methicillin-resistant Staphylococcus aureus 531026 clinical isolate after 20 to 24 hrs by two-fold microdilution method
[31] = test system: Staphylococcus aureus; experiment: Antibacterial activity against methicillin-resistant Staphylococcus aureus 11819 clinical isolate after 20 to 24 hrs by two-fold microdilution method
[32] = test system: Escherichia coli; experiment: Antibacterial activity against Escherichia coli ATCC 25922 after 20 to 24 hrs by two-fold microdilution method
[33] = test system: Staphylococcus aureus; experiment: Antibacterial activity against methicillin-resistant Staphylococcus aureus 131215 clinical isolate after 20 to 24 hrs by two-fold microdilution method
[34] = test system: Staphylococcus aureus; experiment: Antibacterial activity against methicillin-resistant Staphylococcus aureus 304243 clinical isolate after 20 to 24 hrs by two-fold microdilution method
[35] = test system: Staphylococcus aureus; experiment: Antibacterial activity against methicillin-resistant Staphylococcus aureus 111625 clinical isolate after 20 to 24 hrs by two-fold microdilution method
[36] = test system: Staphylococcus aureus; experiment: Antibacterial activity against methicillin-resistant Staphylococcus aureus 1212221 clinical isolate after 20 to 24 hrs by two-fold microdilution method
[37] = test system: Staphylococcus aureus; experiment: Antibacterial activity against methicillin-resistant Staphylococcus aureus clinical isolate after 20 to 24 hrs by two-fold microdilution method
[38] = test system: Staphylococcus aureus; experiment: Antibacterial activity against methicillin-resistant Staphylococcus aureus 221022 clinical isolate after 20 to 24 hrs by two-fold microdilution method
[39] = test system: Staphylococcus aureus; experiment: Antibacterial activity against methicillin-resistant Staphylococcus aureus 10281-2 clinical isolate after 20 to 24 hrs by two-fold microdilution method
[40] = test system: Staphylococcus aureus; experiment: Antibacterial activity against methicillin-resistant Staphylococcus aureus 120827 clinical isolate after 20 to 24 hrs by two-fold microdilution method
[41] = test system: Staphylococcus aureus; experiment: Antibacterial activity against methicillin-resistant Staphylococcus aureus 1012039 clinical isolate after 20 to 24 hrs by two-fold microdilution method
[42] = test system: Staphylococcus aureus; experiment: Antibacterial activity against methicillin-resistant Staphylococcus aureus 908046 clinical isolate after 20 to 24 hrs by two-fold microdilution method
[43] = test system: Staphylococcus haemolyticus; experiment: Antibacterial activity against Staphylococcus haemolyticus CICC 10373 after 20 to 24 hrs by two-fold microdilution method
[44] = test system: Staphylococcus aureus; experiment: Antibacterial activity against methicillin-resistant Staphylococcus aureus 625032 clinical isolate after 20 to 24 hrs by two-fold microdilution method
[45] = test system: Staphylococcus aureus; experiment: Antibacterial activity against methicillin-resistant Staphylococcus aureus 112430 clinical isolate after 20 to 24 hrs by two-fold microdilution method
[46] = test system: Staphylococcus aureus; experiment: Antibacterial activity against […] Staphylococcus aureus ATCC 25923 after 20 to 24 hrs by two-fold microdilution method
[47] = test system: Staphylococcus aureus; experiment: Antibacterial activity against methicillin-resistant Staphylococcus aureus 110834 clinical isolate after 20 to 24 hrs by two-fold microdilution method

CN1CCN(CCCCCCOC(=O)c2c3c(n4cc(Br)ccc24)C(=O)c2ncccc2C3=O)CC1
MIC [1]: ≤ 0.0078 µg/mL
MIC [2]: 0.25 µg/mL (≈ 0.452 µM)
MIC [3]: 0.5 µg/mL (≈ 0.903 µM)
MIC [4]: 0.25 µg/mL (≈ 0.452 µM)
MIC [5]: 0.25 µg/mL (≈ 0.452 µM)
MIC [6]: ≤ 0.0078 µg/mL
MIC [7]: 0.5 µg/mL (≈ 0.903 µM)
MIC [8]: 0.25 µg/mL (≈ 0.452 µM)
MIC [9]: ≤ 0.0078 µg/mL
MIC [10]: ≤ 0.0078 µg/mL
MIC [11]: 0.25 µg/mL (≈ 0.452 µM)
MIC [12]: 16 µg/mL (≈ 28.9 µM)
MIC [13]: 0.25 µg/mL (≈ 0.452 µM)
MIC [14]: 0.25 µg/mL (≈ 0.452 µM)
MIC [15]: 0.125 µg/mL (≈ 0.226 µM)
MIC [16]: 0.25 µg/mL (≈ 0.452 µM)
MIC [17]: 0.25 µg/mL (≈ 0.452 µM)
MIC [18]: 0.031 µg/mL (≈ 0.056 µM)
MIC [19]: 0.5 µg/mL (≈ 0.903 µM)
MIC [20]: 0.063 µg/mL (≈ 0.114 µM)
MIC [21]: 0.5 µg/mL (≈ 0.903 µM)
MIC [22]: 0.125 µg/mL (≈ 0.226 µM)
MIC [23]: ≤ 0.0078 µg/mL
MIC [24]: 0.031 µg/mL (≈ 0.056 µM)
MIC [25]: 0.125 µg/mL (≈ 0.226 µM)
MIC [26]: 0.125 µg/mL (≈ 0.226 µM)
MIC [27]: 0.125 µg/mL (≈ 0.226 µM)
MIC [28]: 0.25 µg/mL (≈ 0.452 µM)
MIC [29]: 0.063 µg/mL (≈ 0.114 µM)
MIC [30]: 1 µg/mL (≈ 1.81 µM)
MIC [31]: 0.063 µg/mL (≈ 0.114 µM)
MIC [32]: 4 µg/mL (≈ 7.23 µM)
MIC [33]: 0.063 µg/mL (≈ 0.114 µM)
MIC [34]: 0.25 µg/mL (≈ 0.452 µM)
MIC [35]: 0.125 µg/mL (≈ 0.226 µM)
MIC [36]: 0.063 µg/mL (≈ 0.114 µM)
MIC50 [37]: 0.125 µg/mL (≈ 0.226 µM)
MIC90 [37]: 0.5 µg/mL (≈ 0.903 µM)
MIC [38]: 0.125 µg/mL (≈ 0.226 µM)
MIC [39]: ≤ 0.0078 µg/mL
MIC [40]: 0.016 µg/mL (≈ 0.0289 µM)
MIC [41]: 0.125 µg/mL (≈ 0.226 µM)
MIC [42]: 0.063 µg/mL (≈ 0.114 µM)
MIC [43]: 0.063 µg/mL (≈ 0.114 µM)
MIC [44]: 0.125 µg/mL (≈ 0.226 µM)
MIC [45]: 0.125 µg/mL (≈ 0.226 µM)
MIC [46]: ≤ 0.0078 µg/mL
MIC [47]: 0.125 µg/mL (≈ 0.226 µM)
